Where two headings read alike, the source gives them in different places. Marks after values point to notes of the source that are not given here. One block for each compound: values may come before it.
Tests used:
S. mansoni [1] = assay: S. mansoni in vivo study, worm burden reduction in infected NMRI mice; parameters: species or system Schistosoma mansoni in NMRI mice; conditions: for inhibition in vivo at 100 mg/kg: Schistosoma mansoni, in Mus musculus, po, 504 h, read-out: S. mansoni WBR
in vitro [2] = conditions: human, microsomes
[3] = biological target: T1, wild-type androgen receptor (AR) in LAPC4 cell line (Homo sapiens, UniProt P10275); type: cell-based
T1 sequence (P10275 1-920): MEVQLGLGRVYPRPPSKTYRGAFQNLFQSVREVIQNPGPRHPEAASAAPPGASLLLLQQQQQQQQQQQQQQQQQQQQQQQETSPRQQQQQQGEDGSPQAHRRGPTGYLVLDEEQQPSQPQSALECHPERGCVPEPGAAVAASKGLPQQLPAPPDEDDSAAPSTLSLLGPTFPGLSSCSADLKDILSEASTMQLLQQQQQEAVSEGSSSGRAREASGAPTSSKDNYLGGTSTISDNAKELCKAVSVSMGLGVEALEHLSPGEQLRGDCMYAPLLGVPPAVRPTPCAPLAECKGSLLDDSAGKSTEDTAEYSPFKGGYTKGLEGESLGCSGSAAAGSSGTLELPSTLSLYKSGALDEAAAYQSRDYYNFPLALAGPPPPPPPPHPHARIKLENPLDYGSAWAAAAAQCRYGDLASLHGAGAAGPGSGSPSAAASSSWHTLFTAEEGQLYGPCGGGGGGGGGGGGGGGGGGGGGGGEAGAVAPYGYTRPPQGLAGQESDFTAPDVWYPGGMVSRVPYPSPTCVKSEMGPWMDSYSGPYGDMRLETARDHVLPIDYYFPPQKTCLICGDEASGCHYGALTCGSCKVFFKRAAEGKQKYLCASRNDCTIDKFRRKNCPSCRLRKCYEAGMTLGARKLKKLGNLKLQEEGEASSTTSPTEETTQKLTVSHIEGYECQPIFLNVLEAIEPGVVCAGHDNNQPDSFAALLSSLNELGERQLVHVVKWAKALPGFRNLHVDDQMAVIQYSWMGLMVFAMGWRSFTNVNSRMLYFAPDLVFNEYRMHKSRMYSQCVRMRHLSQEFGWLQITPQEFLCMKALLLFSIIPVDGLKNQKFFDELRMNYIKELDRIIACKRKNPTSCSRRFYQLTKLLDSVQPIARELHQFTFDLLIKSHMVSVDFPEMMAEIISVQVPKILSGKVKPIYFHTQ

physchem = type: physicochemical; conditions: pH 7.4
[4] = type: in vitro ADME; conditions: liver microsomes
in vitro [5] = conditions: mouse, microsomes
[6] = Mouse exposure study after oral administration; type: in vivo, male Swiss outbred mice; conditions: for exposure of metabolite relative to 1, based on AUC0–24h: after oral administration of 100 mg/kg of 1
[7] = single 1250 mg/kg dose, mice; cited from earlier work
S. mansoni [8] = conditions: 1 × 100 mg/kg po, cited from earlier work
[9] = system: androgen-dependent cell line; conditions: cited from earlier work
[10] = cited from earlier work
AR = conditions: cited from earlier work
[11] = system: schistosomula or adult S. mansoni; conditions: concentrations up to 170 μM; cited from earlier work
S. mansoni [12] = conditions: cited from earlier work
human albumin = human albumin (Homo sapiens, UniProt P02768); assay: in vitro; type: in vitro ADME; conditions: plasma, cPPB, estimated from retention on human albumin column
[13] = 0.01 M HCl (approximately pH 2.0), 1% DMSO, nephelometry
[14] = pH 6.5 phosphate buffer, 1% DMSO, nephelometry
[15] = male, Swiss outbred, mouse, plasma, po, 100 mg/kg

Sequence of human albumin (P02768 25-609): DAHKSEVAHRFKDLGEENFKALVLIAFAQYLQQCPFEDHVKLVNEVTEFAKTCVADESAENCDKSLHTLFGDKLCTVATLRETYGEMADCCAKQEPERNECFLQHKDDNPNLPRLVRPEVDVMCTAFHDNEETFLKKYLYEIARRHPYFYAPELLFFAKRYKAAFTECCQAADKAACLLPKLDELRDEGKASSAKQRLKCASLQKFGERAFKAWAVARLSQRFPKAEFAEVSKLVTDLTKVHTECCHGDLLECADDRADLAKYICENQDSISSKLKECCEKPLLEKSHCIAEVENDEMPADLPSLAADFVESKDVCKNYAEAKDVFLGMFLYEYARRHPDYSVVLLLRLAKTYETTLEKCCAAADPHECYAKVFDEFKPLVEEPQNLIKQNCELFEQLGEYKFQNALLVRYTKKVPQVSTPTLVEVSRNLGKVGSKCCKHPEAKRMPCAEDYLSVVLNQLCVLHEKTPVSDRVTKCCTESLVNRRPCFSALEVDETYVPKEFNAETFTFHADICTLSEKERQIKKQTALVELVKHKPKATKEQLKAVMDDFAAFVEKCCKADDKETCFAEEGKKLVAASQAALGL

Structure (SMILES): CC1(C)NC(=O)N(c2ccnc(C(F)(F)F)c2)C1=O [Compd 16, 5,5-Dimethyl-3-[2-(trifluoromethyl)pyridin-4-yl]imidazolidine-2,4-dione]
cure of infected mice (S. mansoni [1]; 100 mg/kg): cure of all of the infected mice

Structure (SMILES): O=C1N[C@H](c2ccccc2)C(=O)N1c1ccc(F)c(C(F)(F)F)c1 [Compd 24, (R)-3-[4-Fluoro-3-(trifluoromethyl)phenyl]-5-phenylimidazolidine-2,4-dione]
microsomal CLint (in vitro [2]): 22 µL/min/mg | IC50 [3]: 5.3 µM | chromatographic logD (physchem): 3.5 | Sol2.0 [13]: 6.3–12.5/6.3–12.5 μg/mL | Sol6.5 [14]: 6.3–12.5/6.3–12.5 μg/mL | metabolic stability (in words) [4]: decreased the metabolic stabilities | inhibition in vivo at 100 mg/kg (S. mansoni [1]): 41% | microsomal CLint (in vitro [5]): 181 µL/min/mg

Structure (SMILES): CC1(C)C(=O)N(c2ccc(F)c(C(F)(F)F)c2)C(=O)N1CC(N)=O [Compd 4, 2-[3-[4-Fluoro-3-(trifluoromethyl)phenyl]-5,5-dimethyl-2,4-dioxoimidazolidin-1-yl]acetamide]
LAPC4 IC50 ([3]; DHT-induced luciferase reporter, 24 h): agonist | AR functional activity (in words) ([3]; LAPC4 reporter): weak AR agonist | Sol2.0 [13]: 50–100/50–100 μg/mL | Sol6.5 [14]: 50–100/50–100 μg/mL

Sol2.0 [13]: 25 to 50 µg/mL | exposure of metabolite relative to 1, based on AUC0–24h [6]: < 1%
Structure (SMILES): CC(C)(NC(=O)Nc1ccc(F)c(C(F)(F)F)c1)C(=O)O [Compd 36, 2-[3-[4-Fluoro-3-(trifluoromethyl)phenyl]ureido]-2-methylpropanoic acid]

Structure (SMILES): CC1(C)NC(=O)N(c2ccc(F)c(C(F)(F)F)c2)C1=O [Compd 1]
Sol2.0 [13]: >100/>100 μg/mL | Sol6.5 [14]: >100/>100 μg/mL | toxicity after a single dose [7]: no apparent toxicity | S. mansoni WBR (S. mansoni [8]; ref Keiser et al. 19, 100 mg/kg): 95 ^h % | DHT-induced cell proliferation [9]: did block | pKa [10]: 12.1 | interaction with the AR in a ligand competition assay (AR): no measurable interaction | metabolic stability (in words) [4]: high metabolic stabilities | effect on adult S. mansoni in vitro [11]: almost no effect

Sol2.0 [13]: 50–100/50–100 μg/mL | Sol6.5 [14]: 50–100/50–100 μg/mL | metabolic stability (in words) [4]: decreased the metabolic stabilities
Structure (SMILES): O=C1NC2(CCCC2)C(=O)N1c1ccc(F)c(C(F)(F)F)c1 [Compd 26, 3-[4-Fluoro-3-(trifluoromethyl)phenyl]-1,3-diazaspiro[4.4]nonane-2,4-dione]

Sol2.0 [13]: 50 to 100 µg/mL | Sol6.5 [14]: 25 to 50 µg/mL | metabolic stability (in words) [4]: intermediate
Structure (SMILES): CCN1C(=O)N(c2ccc(F)c(C(F)(F)F)c2)C(=O)C1(C)C [Compd 3, 1-Ethyl-3-[4-fluoro-3-(trifluoromethyl)phenyl]-5,5-dimethylimidazolidine-2,4-dione]
metabolic reactions observed [4]: N-dealkylation metabolic reactions to form 1

Sol2.0 [13]: 3.1–6.3/3.1–6.3 μg/mL | Sol6.5 [14]: 3.1–6.3/3.1–6.3 μg/mL | metabolic stability (in words) [4]: decreased the metabolic stabilities
Structure (SMILES): O=C1NC2(CCCCC2)C(=O)N1c1ccc(F)c(C(F)(F)F)c1 [Compd 27, 3-[4-Fluoro-3-(trifluoromethyl)phenyl]-1,3-diazaspiro[4.5]decane-2,4-dione]

Structure (SMILES): CC1(C)NC(=O)N(c2ccc([N+](=O)[O-])c(C(F)(F)F)c2)C1=O [N, nilutamide]
antischistosomal activity in S. mansoni-infected mice (S. mansoni [12]): weak, but measurable

Sol2.0 [13]: 25–50/25–50 μg/mL | Sol6.5 [14]: 25–50/25–50 μg/mL | metabolic stability (in words) [4]: high metabolic stabilities | exposure of metabolite relative to 1, based on AUC0–24h [6]: approximately 3%
Structure (SMILES): CC1(CO)NC(=O)N(c2ccc(F)c(C(F)(F)F)c2)C1=O (stereo not shown) [Compd 25, 3-[4-Fluoro-3-(trifluoromethyl)phenyl]-5-(hydroxymethyl)-5-methylimidazolidine-2,4-dione]

Sol2.0 [13]: 12.5 to 25 µg/mL | Sol6.5 [14]: 25 to 50 µg/mL | metabolic stability (in words) [4]: unstable
Structure (SMILES): CC1(C)C(=O)N(c2ccc(F)c(C(F)(F)F)c2)C(=O)N1CCc1ccccc1 [Compd 6, 3-[4-Fluoro-3-(trifluoromethyl)phenyl]-5,5-dimethyl-1-phenethylimidazolidine-2,4-dione]

Structure (SMILES): CC1NC(=O)N(c2ccc(F)c(C(F)(F)F)c2)C1=O (stereo not shown) [Compd 23, 3-[4-Fluoro-3-(trifluoromethyl)phenyl]-5-methylimidazolidine-2,4-dione]
microsomal CLint (in vitro [2]): 17 µL/min/mg | chromatographic logD (physchem): 2.4 | Sol2.0 [13]: >100/>100 μg/mL | Sol6.5 [14]: >100/>100 μg/mL | fraction unbound (human albumin): 0.614 | metabolic stability (in words) [4]: high metabolic stabilities | inhibition in vivo at 100 mg/kg (S. mansoni [1]): 66% | AUC(0-t) [6, 15]: 163 µM·h | Cmax [6, 15]: 26.6 µM | Tmax [6, 15]: 1 h | microsomal CLint (in vitro [5]): 34 µL/min/mg

Structure (SMILES): O=C(C1CCCCC1)N1CC(=O)N2CCc3ccccc3C2C1 (stereo not shown) [PZ, Praziquantel]
ED50 against adult S. mansoni (S. mansoni [12]; mouse model): 172 to 202 mg/kg | activity against juvenile stages of the parasite (S. mansoni [12]; mouse model): no significant activity | Sol2.0 (pH 2): >100/>100 μg/mL | Sol6.5 (pH 6.5): >100/>100 μg/mL | S. mansoni WBR (S. mansoni [8]; ref Keiser et al. 21): 18 ^i %
